Measurements published in paper PMC8027081, “Structural Basis of VSIG3: The Ligand for VISTA” (Frontiers in Immunology, 2021).
Each block holds one molecule with its values, some of them ahead of it.

Columns and labels:
human VSIG3-ECD = molecular target: T1, human VSIG3-ECD (Homo sapiens, UniProt Q5DX21); test: microscale thermophoresis; assay type: binding; conditions: room temperature, 30 min; RED-NHS labelled protein
T1 construct: gene IGSF11; extracellular domain (IgV + IgC2), signal peptide (22 aa) removed, His-tagged; RED-NHS labelled for MST; dimer in crystal
T1 sequence (Q5DX21 23-241): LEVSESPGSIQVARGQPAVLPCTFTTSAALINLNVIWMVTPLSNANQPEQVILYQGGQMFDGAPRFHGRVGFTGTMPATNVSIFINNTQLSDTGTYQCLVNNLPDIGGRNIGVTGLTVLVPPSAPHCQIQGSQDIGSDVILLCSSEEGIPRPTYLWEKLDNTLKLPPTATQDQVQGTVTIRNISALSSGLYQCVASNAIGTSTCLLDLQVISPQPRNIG

[1] = molecular target: the molecule itself; test: crystal structure; hanging drop vapor diffusion, 4°C, 0.1 M sodium citrate tribasic dihydrate pH 5.6, 0.01 M iron(III) chloride, 10% Jeffamine M-600; VSIG3 at 3 mg/mL; 2.64 Å

Kd (human VSIG3-ECD): 11.6 ± 9.12 µM
Molecule: O=C(CCn1c(SCC(=O)NC2CCCC2)nc2ccccc2c1=O)NC1CCCCC1 [K284-3046]

B1: human VSIG3 extracellular domain (residues 23-241) expressed in E. coli, refolded (domain or fragment, UniProt Q5DX21 23-241, looked up)
chain: T1 sequence (Q5DX21 23-241)
notes: VSIG3 (IgSF11), human, UniProt Q5DX21, residues 23-241 (extracellular domain without the 22-residue signal peptide); No PDB id is printed; also called VSIG3-ECD; IgSF11; not shown: His tag (from the vector pET28a)
stoichiometry N [1]: 2
